Test results published in patent publication US4562287A, “2-(4-Biphenylyl)-4-hexenoic acid and derivatives thereof having anti-inflammatory activity” (priority 1983, dated 1985).

How the values were obtained:
[1] = tested on: Hot plate, endurance time at 52° C.; assay: Analgesic activity, Hot plate (II); format: in vivo
Experimental: (§1) Dose endurance time at 52° C. over checks

[2] = tested on: Carragenine induced edema; assay: Activity on carragenine induced edema (Table 9); format: in vivo
Source text: |Activity on carragenine induced edema.

[3] = tested on: Hot plate, endurance time at 52° C.; assay: Analgesic activity, Hot plate (I); format: in vivo; settings: 50 mg/Kg p.o.
Experimental: as §1

[4] = tested on: Carragenine induced edema; assay: Anti-inflammatory activity on carragenine induced edema (Table 11); format: in vivo
pain threshold = assay: Analgesic activity, RANDALL-SELLITO pain threshold; format: in vivo
Source text: | RANDALL-SELLITO pain threshold

in vivo = settings: po, rat, p.o., read-out: DL50 (the source's name)
Dextrose edema = assay: Edema induced by different substances: dextrose (Table 3); format: in vivo
Source text: (§2) |Edema induced by different substances.

[5] = tested on: capillary permeability (Histamine); assay: Effect on the capillary permeability, histamine; format: in vivo; settings: 200 mg/Kg p.o., checks 21.33
Source text: (§3) |Effect on the capillary permeability

Kaolin edema = assay: Edema induced by different substances: kaolin (Table 3); format: in vivo
Source text: as §2

Yeast edema = assay: Edema induced by different substances: yeast (Table 3); format: in vivo
Source text: |Edema induced by different substances. | % edema inhibition

[6] = tested on: capillary permeability (Serotonin); settings: 200 mg/Kg p.o., checks 18.16
Serotonin edema = assay: Edema induced by different substances: serotonin (Table 3); format: in vivo
Source text: as §2

[7] = tested on: capillary permeability (Dextran); assay: Effect on the capillary permeability, dextran; format: in vivo; settings: 200 mg/Kg p.o., checks 14.83
Source text: as §3

[8] = British Patent No. 847.779; cited from earlier work
Carragenine edema = assay: Edema induced by different substances: carragenine (Table 3); format: in vivo
Source text: as §2

[9] = tested on: Cotton-pellets induced granuloma; assay: Cotton-pellets induced granuloma; format: in vivo; settings: 200 mg/Kg p.o.
Source text: | Cotton-pellets induced granuloma.

ulcerogenic effect = settings: dose 5 mg; cited from earlier work
SH Groups in serum = assay: SH groups in serum (Table 8); format: in vivo; settings: arthritis checks 70, 77
Joint's diameter = Joint's diameter in arthritis (Table 7); format: in vivo; parameters: unit not given here
[10] = tested on: Carragenine induced edema; assay: Carragenine induced edema, first test (Table 2); format: in vivo
Source text: |ANTI-INFLAMMATORY ACTIVITY. |Carragenine induced edema, first test.

[11] = tested on: erytrocytes sedimetation rate (ESR); assay: Erytrocytes sedimetation rate (ESR) (Table 8); format: in vivo; settings: arthritis checks 41, 56
[12] = tested on: Freund's adjuvant induced arthritis; assay: Freund's adjuvant induced arthritis, edema inhibition

## CC=CCC(C(=O)O)c1ccc(-c2ccc(F)cc2)cc1 (centres unmarked) [SCR 159, 2-[4-biphenylyl-(4' fluoro)]4-hexenoic acid]
[1]; Hot plate (II), 35,6 mg/Kg p.o., 1 hour
  endurance time at 52° C. over checks: 22
[1]; Hot plate (II), 35,6 mg/Kg p.o., 2 hours
  endurance time at 52° C. over checks: 43
[1]; Hot plate (II), 53,45 mg/Kg p.o., 1 hour
  endurance time at 52° C. over checks: 45
[1]; Hot plate (II), 53,45 mg/Kg p.o., 2 hours
  endurance time at 52° C. over checks: 29
[1]; Hot plate (II), 80,18 mg/Kg p.o., 1 hour
  endurance time at 52° C. over checks: 26
[2]; 53 mg/Kg p.o.
  Inhibition %: 29%
[2]; 80 mg/Kg p.o.
  Inhibition %: 26%
[2]; 120 mg/Kg p.o.
  Inhibition %: 26%
[3]; 2 hours
  endurance time at 52° C. over checks: 38
[4]; 50 mg/Kg p.o.
  % inhibition: 32%
Pain threshold; 23,7 mg/Kg p.o., 1 hour
  RANDALL-SELLITO pain threshold over checks: 55
Pain threshold; 23,7 mg/Kg p.o., 2 hours
  RANDALL-SELLITO pain threshold over checks: 7
Pain threshold; 35,6 mg/Kg p.o., 1 hour
  RANDALL-SELLITO pain threshold over checks: 49
Pain threshold; 35,6 mg/Kg p.o., 2 hours
  RANDALL-SELLITO pain threshold over checks: 32
Pain threshold; 53,45 mg/Kg p.o., 1 hour
  RANDALL-SELLITO pain threshold over checks: 47
Pain threshold; 53,45 mg/Kg p.o., 2 hours
  RANDALL-SELLITO pain threshold over checks: 16
In vivo
  LD50: 900 mg/kg

## CC=CCC(C(=O)O)c1ccc(-c2ccccc2)cc1 (racemic) [SCR 157, 2-(4-biphenyl)-4-hexenoic acid]
Dextrose edema; 50 mg/Kg p.o.
  % edema inhibition: 0%
Dextrose edema; 100 mg/Kg p.o.
  % edema inhibition: 8%
Dextrose edema; 200 mg/Kg p.o.
  % edema inhibition: 8%
[5]
  Effect on the capillary permeability, .0. m.micron: 20.28 m.micron
Kaolin edema; 50 mg/Kg p.o.
  % edema inhibition: 42%
Kaolin edema; 100 mg/Kg p.o.
  % edema inhibition: 49%
Kaolin edema; 200 mg/Kg p.o.
  % edema inhibition: 57%
Yeast edema; 50 mg/Kg p.o.
  % edema inhibition: 11%
Yeast edema; 100 mg/Kg p.o.
  % edema inhibition: 22%
Yeast edema; 200 mg/Kg p.o.
  % edema inhibition: 28%
[6]
  Effect on the capillary permeability, .0. m.micron: 16.57 m.micron
[2]; 50 mg/Kg p.o.
  Inhibition %: 10%
[2]; 75 mg/Kg p.o.
  Inhibition %: 31%
[2]; 112,5 mg/Kg p.o.
  Inhibition %: 24%
Serotonin edema; 50 mg/Kg p.o.
  % edema inhibition: 0%
Serotonin edema; 100 mg/Kg p.o.
  % edema inhibition: 16%
Serotonin edema; 200 mg/Kg p.o.
  % edema inhibition: 22%
[7]
  Effect on the capillary permeability, .0. m.micron: 14.85 m.micron
[8]
  anticholesterinemic and antiliphaemic properties: exhibits properties of anticholesterinemic and antiliphaemic agent
[3]; 1 hour
  endurance time at 52° C. over checks: 3
[3]; 2 hours
  endurance time at 52° C. over checks: 26
Carragenine edema; 50 mg/Kg p.o.
  % edema inhibition: 8%
Carragenine edema; 100 mg/Kg p.o.
  % edema inhibition: 43%
Carragenine edema; 200 mg/Kg p.o.
  % edema inhibition: 64%
[4]; 50 mg/Kg p.o.
  % inhibition: 33%
[9]
  % inhibition: 29%

## COc1ccc2c(c1)c(CC(=O)O)c(C)n2C(=O)c1ccc(Cl)cc1 [Indomethacin]
Ulcerogenic effect
  ulcerogenic effect: exhibits surely ulcerogenic effect
SH Groups in serum; 1 mg/Kg p.o.
  SH groups diminution in %: 78%
SH Groups in serum; 2 mg/Kg p.o.
  SH groups diminution in %: 50%
Joint's diameter; 1 mg/Kg p.o., 1 week, arthritis checks 0.48, 0.38
  Joint's diameter: 0.38
Joint's diameter; 1 mg/Kg p.o., 2 weeks, arthritis checks 0.71, 0.75
  Joint's diameter: 0.50
Joint's diameter; 1 mg/Kg p.o., 3 weeks, arthritis checks 0.81, 0.79
  Joint's diameter: 0.49
Joint's diameter; 1 mg/Kg p.o., 4 weeks, arthritis checks 0.85, 0.89
  Joint's diameter: 0.55
Joint's diameter; 2 mg/Kg p.o., 1 week, arthritis checks 0.48, 0.38
  Joint's diameter: 0.22
Joint's diameter; 2 mg/Kg p.o., 2 weeks, arthritis checks 0.71, 0.75
  Joint's diameter: 0.39
Joint's diameter; 2 mg/Kg p.o., 3 weeks, arthritis checks 0.81, 0.79
  Joint's diameter: 0.34
Joint's diameter; 2 mg/Kg p.o., 4 weeks, arthritis checks 0.85, 0.89
  Joint's diameter: 0.34
[4]; 5 mg/Kg p.o.
  % inhibition: 38%
[10]; 2.5 mg/Kg p.o.
  % inhibition: 33%
[10]; 5 mg/Kg p.o.
  % inhibition: 36%
[10]; 10 mg/Kg p.o.
  % inhibition: 48%
[11]; 1 mg/Kg p.o.
  E.S.R.: 38
[11]; 2 mg/Kg p.o.
  E.S.R.: 15
[12]; 1 mg/Kg p.o., 2 days
  Edema inhibition %: 49%
[12]; 1 mg/Kg p.o., 4 days
  Edema inhibition %: 7%
[12]; 1 mg/Kg p.o., 8 days
  Edema inhibition %: 27%
[12]; 1 mg/Kg p.o., 12 days
  Edema inhibition %: 58%
[12]; 1 mg/Kg p.o., 16 days
  Edema inhibition %: 60%
[12]; 1 mg/Kg p.o., 20 days
  Edema inhibition %: 37%
[12]; 1 mg/Kg p.o., 24 days
  Edema inhibition %: 57%
[12]; 2 mg/Kg p.o., 2 days
  Edema inhibition %: 49%
[12]; 2 mg/Kg p.o., 4 days
  Edema inhibition %: 35%
[12]; 2 mg/Kg p.o., 8 days
  Edema inhibition %: 51%
[12]; 2 mg/Kg p.o., 12 days
  Edema inhibition %: 48%
[12]; 2 mg/Kg p.o., 16 days
  Edema inhibition %: 71%
[12]; 2 mg/Kg p.o., 20 days
  Edema inhibition %: 73%
[12]; 2 mg/Kg p.o., 24 days
  Edema inhibition %: 71%
